Data taken from US20230295166A1, “ATR INHIBITORS AND USES THEREOF” (ANTENGENE DISCOVERY LIMITED, priority 2020, published 2023).

Key:
[1] = target: ATR kinase (Homo sapiens (Human), UniProt Q13535); test: ATR inhibition assay (mobility shift assay, phosphorylation of FAM-RAD17); format: biochemical; conditions: ATR kinase (Eurofins), substrate FAM-RAD17, mobility shift
Method: Assay 1: ATR Inhibition Assay
Detection of ATR kinase activity utilized the Mobility shift assay to measure the phosphorylation of the substrate protein FAM-RAD17 (GL, Cat. No. 514318, Lot. No. P19042-MJ524315). The assay was developed and conducted at Chempartner. All the test compounds were dissolved in 100% DMSO at concentration of 20 mM, then prepare compounds and conducted the assay as follows: • 1) Transfer 80 μl 20 mM compound to 40 μl of 100% DMSO in a 96-well plate. • 2) Serially dilute the compound by transferring 20 μl to 60 μl of 100% DMSO in the next well and so forth for a total of 10 concentrations. • 3) Add 100 μl of 100% DMSO to two empty wells for no compound control and no enzyme control in the same 96-well plate. Mark the plate as source plate. • 4) Transfer 40 μl of compound from source plate to a new 384-well plate as the intermediate plate. • 5) Transfer 60 nl compounds to assay plate by Echo. • 6) Add ATR kinase (Eurofins, Cat. No. 14-953, Lot. No. D14 JP007N) into Kinase base buffer (50 mM HEPES, pH 7.5; 0.0015% Brij-35; 0.01% Triton) to prepare 2× enzyme solution, then add 10 μl of 2× enzyme solution to each well of the 384-well assay plate, incubate at room temperature for 10 min. • 7) Add FAM-RAD17 and ATP (Sigma, Cat. No. A7699-1G, CAS No. 987-65-5) in the kinase base buffer to prepare 2×peptide solution, then add 10 μl to the assay plate. • 8) Incubate at 28° C. for specified period of time. Add 40 μl of stop buffer (100 mM HEPES, pH 7.5; 0.015% Brij-35; 0.2% Coating Reagent #3; 50 mM EDTA) to stop reaction. • 9) Collect data on Caliper. Convert conversion values to inhibition values.
Percent inhibition=(max−conversion)/(max−min)*100 wherein “max” stands for DMSO control; “min” stands for low control.
Fit the data in XLFit excel add-in version 5.4.0.8 to obtain IC50 values. Equation used is:
Y=Bottom+(Top−Bottom)/(1+(IC50/X)^HillSlope) wherein X means concentration in a format not transformed to logarithms.

[2] = system: LoVo (CCL-229) cells; test: Tumor cell anti-proliferation assay (CTG assay); format: cell-based; conditions: LoVo human colorectal cancer cells, 96 h, CellTiter-Glo
Outline: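 Cells seeded and held 20–24 h, then exposed to 3-fold serial dilutions of compound (final DMSO 0.5%) for 96 h at 37 °C, 5% CO2. Viability measured by CellTiter-Glo luminescence; IC50 and GI50 from a 4-parameter logistic fit.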

Chain of ATR kinase (Q13535 whole entry): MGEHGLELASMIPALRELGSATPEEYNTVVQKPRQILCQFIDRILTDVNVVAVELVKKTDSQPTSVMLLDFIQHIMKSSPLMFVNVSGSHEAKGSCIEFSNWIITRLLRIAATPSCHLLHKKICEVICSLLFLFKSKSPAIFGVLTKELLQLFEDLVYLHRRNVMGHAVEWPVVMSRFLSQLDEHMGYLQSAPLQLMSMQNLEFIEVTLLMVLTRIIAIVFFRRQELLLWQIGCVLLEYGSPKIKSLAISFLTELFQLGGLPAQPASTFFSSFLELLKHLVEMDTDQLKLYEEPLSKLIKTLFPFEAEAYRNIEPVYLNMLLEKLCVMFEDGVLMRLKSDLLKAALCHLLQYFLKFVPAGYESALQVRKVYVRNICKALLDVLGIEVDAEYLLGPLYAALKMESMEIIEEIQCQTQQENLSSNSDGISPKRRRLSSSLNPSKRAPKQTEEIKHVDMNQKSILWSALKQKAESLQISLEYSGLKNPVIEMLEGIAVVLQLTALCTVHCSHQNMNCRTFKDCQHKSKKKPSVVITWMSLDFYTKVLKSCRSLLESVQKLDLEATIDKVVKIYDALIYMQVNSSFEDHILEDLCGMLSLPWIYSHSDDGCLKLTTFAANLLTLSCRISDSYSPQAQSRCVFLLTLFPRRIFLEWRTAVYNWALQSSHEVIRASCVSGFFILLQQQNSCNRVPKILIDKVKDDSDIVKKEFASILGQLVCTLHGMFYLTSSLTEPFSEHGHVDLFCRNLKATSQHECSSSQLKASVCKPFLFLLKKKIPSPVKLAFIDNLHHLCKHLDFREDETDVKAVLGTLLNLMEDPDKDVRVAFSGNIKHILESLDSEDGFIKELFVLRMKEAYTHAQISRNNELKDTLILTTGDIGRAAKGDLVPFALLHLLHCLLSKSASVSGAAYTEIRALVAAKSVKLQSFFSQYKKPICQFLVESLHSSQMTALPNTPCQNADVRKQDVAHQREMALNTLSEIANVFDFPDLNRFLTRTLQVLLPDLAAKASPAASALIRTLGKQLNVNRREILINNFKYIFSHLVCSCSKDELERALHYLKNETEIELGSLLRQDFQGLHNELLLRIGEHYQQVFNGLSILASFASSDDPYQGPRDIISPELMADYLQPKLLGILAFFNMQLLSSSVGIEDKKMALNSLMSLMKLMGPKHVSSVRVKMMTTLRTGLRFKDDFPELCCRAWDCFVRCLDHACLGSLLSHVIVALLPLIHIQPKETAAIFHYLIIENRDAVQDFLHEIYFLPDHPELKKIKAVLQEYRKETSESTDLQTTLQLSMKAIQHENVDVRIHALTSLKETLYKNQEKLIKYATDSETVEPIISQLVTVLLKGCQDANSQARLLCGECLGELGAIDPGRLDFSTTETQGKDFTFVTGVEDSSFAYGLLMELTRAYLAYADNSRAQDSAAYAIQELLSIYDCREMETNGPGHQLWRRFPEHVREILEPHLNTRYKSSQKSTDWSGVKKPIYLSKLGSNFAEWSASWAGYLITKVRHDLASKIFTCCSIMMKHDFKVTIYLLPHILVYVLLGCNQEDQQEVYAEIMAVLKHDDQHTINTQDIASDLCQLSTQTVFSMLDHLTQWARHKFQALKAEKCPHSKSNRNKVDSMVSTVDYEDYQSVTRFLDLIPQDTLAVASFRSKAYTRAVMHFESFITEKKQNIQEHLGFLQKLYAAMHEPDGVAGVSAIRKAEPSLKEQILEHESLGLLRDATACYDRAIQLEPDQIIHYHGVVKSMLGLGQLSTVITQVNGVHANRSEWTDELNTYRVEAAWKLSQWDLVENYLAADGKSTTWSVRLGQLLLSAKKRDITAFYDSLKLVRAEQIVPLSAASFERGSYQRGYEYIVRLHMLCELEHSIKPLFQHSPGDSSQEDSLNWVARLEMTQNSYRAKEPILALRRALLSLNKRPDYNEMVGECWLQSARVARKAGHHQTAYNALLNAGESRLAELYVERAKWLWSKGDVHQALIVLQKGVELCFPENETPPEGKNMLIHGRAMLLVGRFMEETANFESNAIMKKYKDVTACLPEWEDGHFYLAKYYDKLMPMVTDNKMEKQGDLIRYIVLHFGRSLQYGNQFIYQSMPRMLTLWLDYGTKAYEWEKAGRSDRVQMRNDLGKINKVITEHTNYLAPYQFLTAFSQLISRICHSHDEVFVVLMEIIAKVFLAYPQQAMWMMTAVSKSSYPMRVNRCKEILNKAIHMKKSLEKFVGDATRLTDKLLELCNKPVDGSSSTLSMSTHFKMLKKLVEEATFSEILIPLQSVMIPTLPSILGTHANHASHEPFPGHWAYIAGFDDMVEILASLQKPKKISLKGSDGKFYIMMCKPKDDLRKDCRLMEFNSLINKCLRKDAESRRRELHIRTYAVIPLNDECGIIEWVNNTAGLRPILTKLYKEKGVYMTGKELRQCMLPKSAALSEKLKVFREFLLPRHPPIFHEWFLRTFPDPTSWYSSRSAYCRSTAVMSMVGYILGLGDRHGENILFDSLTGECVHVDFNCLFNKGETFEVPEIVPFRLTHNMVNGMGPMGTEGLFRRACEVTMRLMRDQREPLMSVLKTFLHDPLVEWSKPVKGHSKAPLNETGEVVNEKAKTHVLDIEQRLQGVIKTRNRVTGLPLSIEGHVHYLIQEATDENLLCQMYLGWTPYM
Chain of ATR kinase (Q8WXE1 whole entry partner): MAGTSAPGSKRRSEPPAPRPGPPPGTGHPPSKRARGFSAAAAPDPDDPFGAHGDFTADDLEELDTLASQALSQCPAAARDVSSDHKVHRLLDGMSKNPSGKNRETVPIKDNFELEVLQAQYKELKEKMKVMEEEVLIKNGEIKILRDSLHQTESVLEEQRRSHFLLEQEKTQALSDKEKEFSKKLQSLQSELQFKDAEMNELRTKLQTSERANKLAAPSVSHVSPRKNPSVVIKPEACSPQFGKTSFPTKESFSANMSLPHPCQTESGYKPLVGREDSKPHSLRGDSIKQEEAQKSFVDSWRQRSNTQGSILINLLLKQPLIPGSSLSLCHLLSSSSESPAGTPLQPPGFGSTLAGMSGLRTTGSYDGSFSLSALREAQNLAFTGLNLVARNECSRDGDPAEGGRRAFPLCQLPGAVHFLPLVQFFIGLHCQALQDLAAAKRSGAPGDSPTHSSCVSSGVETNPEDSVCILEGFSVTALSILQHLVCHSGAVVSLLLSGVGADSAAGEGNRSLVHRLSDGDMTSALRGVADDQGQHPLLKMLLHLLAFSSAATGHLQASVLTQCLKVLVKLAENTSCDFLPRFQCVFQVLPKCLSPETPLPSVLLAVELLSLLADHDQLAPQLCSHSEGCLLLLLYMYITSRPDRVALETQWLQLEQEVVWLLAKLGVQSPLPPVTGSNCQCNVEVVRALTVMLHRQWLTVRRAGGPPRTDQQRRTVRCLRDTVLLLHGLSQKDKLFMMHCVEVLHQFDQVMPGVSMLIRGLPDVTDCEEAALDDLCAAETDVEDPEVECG

| SMILES | IC50 [1] [nM] | IC50 [2] [nM] |
| --- | --- | --- |
| C[C@@H]1COCCN1c1cc(C(C)(C)S(C)(=O)=O)c2snc(-c3ccn[nH]3)c2n1 [Example 55, (R)-3-methyl-4-(7-(2-(methylsulfonyl)propan-2-yl)-3-(1H-pyrazol-5-yl)isothiazolo[4,5-b]pyridin-5-yl)morpholine] | < 100 | 13.7 |
| Cc1cc(-c2nsc3c(C(C)(C)S(C)(=O)=O)cc(N4CCOC[C@H]4C)nc23)[nH]n1 [Example 56, (R)-3-methyl-4-(3-(3-methyl-1H-pyrazol-5-yl)-7-(2-(methylsulfonyl)propan-2-yl)isothiazolo[4,5-b]pyridin-5-yl)morpholine] | < 100 | 19 |
| C[C@@H]1COCCN1c1cc(C2(C#N)CCCC2)c2snc(-c3ccn[nH]3)c2n1 [Example 57, (R)-1-(5-(3-methylmorpholino)-3-(1H-pyrazol-5-yl)isothiazolo[4,5-b]pyridin-7-yl)cyclopentane-1-carbonitrile] | < 100 | 2.5 |
| C[C@@H]1COCCN1c1cc(C2(C#N)CCCCC2)c2snc(-c3ccn[nH]3)c2n1 [Example 58, (R)-1-(5-(3-methylmorpholino)-3-(1H-pyrazol-5-yl)isothiazolo[4,5-b]pyridin-7-yl)cyclohexane-1-carbonitrile] | < 100 | < 1 |
| C[C@@H]1COCCN1c1cc(C2(C#N)CCCCC2)c2cnc(-c3ccn[nH]3)n2n1 [Example 60, (R)-1-(2-(3-methylmorpholino)-7-(1H-pyrazol-5-yl)imidazo[1,5-b]pyridazin-4-yl)cyclohexane-1-carbonitrile] | < 100 | 4.1 |
| Cc1cc(-c2nc(Cl)c3c(-c4ccnn4C)cc(N4CCOC[C@H]4C)nn23)[nH]n1 [Example 62, (3R)-4-[5-chloro-4-(1-methyl-1H-pyrazol-5-yl)-7-(3-methyl-1H-pyrazol-5-yl)imidazo[1,5-b]pyridazin-2-yl]-3-methylmorpholine] | < 100 | 14.6 |
| Cc1cc(-c2ncc3c(C4(C#N)CC4)cc(N4CCOC[C@H]4C)nn23)[nH]n1 [Example 63, (R)-1-(7-(3-methyl-1H-pyrazol-5-yl)-2-(3-methylmorpholino)imidazo[1,5-b]pyridazin-4-yl)cyclopropane-1-carbonitrile] | < 100 | 38.9 |
| Cc1cc(-c2ncc3c(C(C)(C)C#N)cc(N4CCOC[C@H]4C)nn23)[nH]n1 [Example 64, (R)-2-methyl-2-(7-(3-methyl-1H-pyrazol-5-yl)-2-(3-methylmorpholino)imidazo[1,5-b]pyridazin-4-yl)propanenitrile] | < 100 | 15.1 |
| C[C@@H]1COCCN1c1cc(S(=O)(=O)C2CC2)c2snc(-c3ccn[nH]3)c2n1 [Example 75, (R)-4-(7-(cyclopropylsulfonyl)-3-(1H-pyrazol-5-yl)isothiazolo[4,5-b]pyridin-5-yl)-3-methylmorpholine] | < 100 | 15.3 |
| C[C@@H]1COCCN1c1cc(N2CCCCS2(=O)=O)c2snc(-c3ccn[nH]3)c2n1 [Example 76, (R)-2-(5-(3-methylmorpholino)-3-(1H-pyrazol-5-yl)isothiazolo[4,5-b]pyridin-7-yl)-1,2-thiazinane 1,1-dioxide] | < 100 | 24.3 |
| Cc1cc(-c2nsc3c(C4(C#N)CCCC4)cc(N4CCOC[C@H]4C)nc23)[nH]n1 [Example 80, (R)-1-(3-(3-methyl-1H-pyrazol-5-yl)-5-(3-methylmorpholino)isothiazolo[4,5-b]pyridin-7-yl)cyclopentane-1-carbonitrile] | < 100 | 10 |
| Cc1cc(-c2nsc3c(C4(C#N)CCCCC4)cc(N4CCOC[C@H]4C)nc23)[nH]n1 [Example 81, (R)-1-(3-(3-methyl-1H-pyrazol-5-yl)-5-(3-methylmorpholino)isothiazolo[4,5-b]pyridin-7-yl)cyclohexane-1-carbonitrile] | < 100 | 10 |
| C[C@@H]1COCCN1c1cc(C2(C#N)CCOCC2)c2snc(-c3ccn[nH]3)c2n1 [Example 83, (R)-4-(5-(3-methylmorpholino)-3-(1H-pyrazol-5-yl)isothiazolo[4,5-b]pyridin-7-yl)tetrahydro-2H-pyran-4-carbonitrile] | < 100 | 14 |
| Cc1cc(-c2nsc3c(C4(C#N)CCOCC4)cc(N4CCOC[C@H]4C)nc23)[nH]n1 [Example 84, (R)-4-(3-(3-methyl-1H-pyrazol-5-yl)-5-(3-methylmorpholino)isothiazolo[4,5-b]pyridin-7-yl)tetrahydro-2H-pyran-4-carbonitrile] | < 100 | 9 |
| Cc1cc(-c2nsc3c(S(=O)(=O)C4CC4)cc(N4CCOC[C@H]4C)nc23)[nH]n1 [Example 85, (R)-4-(7-(cyclopropylsulfonyl)-3-(3-methyl-1H-pyrazol-5-yl)isothiazolo[4,5-b]pyridin-5-yl)-3-methylmorpholine] | < 100 | 4 |
| Cc1cc(-c2nsc3c(C4(C(N)=O)CCCC4)cc(N4CCOC[C@H]4C)nc23)[nH]n1 [Example 87, (R)-1-(3-(3-methyl-1H-pyrazol-5-yl)-5-(3-methylmorpholino)isothiazolo[4,5-b]pyridin-7-yl)cyclopentane-1-carboxamide] | < 100 | 3 |
| C[C@@H]1COCCN1c1cc(C2(C(N)=O)CCCCC2)c2snc(-c3ccn[nH]3)c2n1 [Example 89, 1-{5-[(3R)-3-methylmorpholin-4-yl]-3-(1H-pyrazol-5-yl)-[1,2]thiazolo[4,5-b]pyridin-7-yl}cyclohexane-1-carboxamide] | < 100 | < 1 |
